Data set [1] relates to ovarian, liver and breast cancer. Conditions: literature; cited from earlier work.
For data set [2] the following is noted: literature; cited from earlier work.
Data set [3] deals with E. coli TS (thymidylate synthase) (Escherichia coli, UniProt P0A884). Nature of the data set: Inhibition constants against 5,10-methylenetetrahydrofolate for thymidylate synthase, E. coli enzyme (tritium release). It counts as biochemical. How it is done:
(§1) Determination of Inhibition Constants Against 5,10-Methylenetetrahydrofolate for the Enzyme Thymidylate Synthase
(§2) Inhibition constants, Ki, slope and Ki, intercept [W. W. Cleland, Biochim. Biophys. […] The cofactor was present as the variable substrate under conditions of saturating radiolabelled 2'-deoxyuridine 5-monophosphate (dUMP). […] Assays of human TS also contained 1-5 μg/mL bovine serum albumin to stabilize the protein. Reactions were initiated by the addition of enzyme and were carried out for 5 minutes at 24° C., and then quenched by the addition of charcoal (15 mg in 0.1 mL H2 O). The quenched samples were centrifuged at 10,000 rpm for 12-15 min at […] to remove unreacted dUMP which had bound to the charcoal, and 0.1 mL of the supernatant was counted by liquid scintillation in the presence of 5 mL ecolume to determine the release of tritium label from the 5-position of the dUMP. […] Experimental results were analyzed by EZ-FIT, a nonlinear regression analysis program (Perrella Scientific, Springfield, Pa.) which was used to fit all data points simultaneously to a mixed noncompetitive inhibition scheme.

Data set [4] addresses human TS (thymidylate synthase) (Homo sapiens, UniProt P04818). Description: Inhibition constants against 5,10-methylenetetrahydrofolate for thymidylate synthase, human enzyme (tritium release). It counts as biochemical. As to conditions: cofactor as variable substrate, pH 7.6, 24° C. The method, then: as §1, §2
Data set [5] has as its system L1210 murine leukemia cells. Nature of the data set: Inhibition of growth of tumor cells, L1210 murine leukemia (MTT). It counts as cell-based. Conditions: Mus musculus, L1210, 72 h; for IC50: 3 days continuous exposure, MTT, read-out: Cell Culture IC50, L1210. The method, then: (§3) In Vitro Testing to Determine Inhibition of Growth of Tumor Cells
(§4) Growth was measured over 3 days (L1210) or 5 days (CCRF-CEM, GC3 /M TK^-) of continuous exposure to varying concentrations of each test compound, added 4 h. after initial cell plating, by the MTT-tetrazolium reduction assay of T. J. Mosmann [J. Immunol. Meth. […] Water insoluble derivatives were dissolved in DMSO and diluted to a final concentration of 0.5% solvent in cell cultures.

The subject of a further data set is CCRF-CEM cells. Nature of the data set: Inhibition of growth of tumor cells, CCRF-CEM human lymphoblastic leukemia (MTT). As to conditions: for IC50: 5 days continuous exposure, MTT, read-out: Cell Culture IC50, CCRF-CEM. It counts as cell-based. The method, then: as §3, §4
Another data set has as its system GC3/M TK- cells. Description: Inhibition of growth of tumor cells, thymidine kinase-deficient human colon adenocarcinoma GC3/M TK- (MTT). It counts as cell-based. As to conditions: for IC50: 5 days continuous exposure, MTT, read-out: Cell Culture IC50, GC3-M (TK-). How it is done:
as §3, §4

Where [6] appears, read: Ki Data, human thymidylate synthase.
[7] abbreviates: read-out: Ki Data, human thymidylate synthase.

Read-outs that look alike come from different tables or passages of the source.

The Ki is the dissociation constant of the complex between target and ligand, obtained from inhibition or displacement. A word on the IC50: it is the concentration that gives 50% inhibition. For orientation: inhibition means the relative decrease from the control value, in per cent.

Sequence of human TS (thymidylate synthase) (P04818 2-313 limits assumed): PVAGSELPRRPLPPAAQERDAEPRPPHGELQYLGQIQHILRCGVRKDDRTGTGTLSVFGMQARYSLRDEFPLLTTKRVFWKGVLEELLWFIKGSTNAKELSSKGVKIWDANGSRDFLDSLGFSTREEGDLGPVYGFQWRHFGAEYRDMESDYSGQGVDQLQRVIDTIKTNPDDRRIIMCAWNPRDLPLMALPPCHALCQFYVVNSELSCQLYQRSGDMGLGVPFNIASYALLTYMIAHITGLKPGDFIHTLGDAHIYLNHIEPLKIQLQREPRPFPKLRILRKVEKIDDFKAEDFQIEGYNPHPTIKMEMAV
Sequence of E. coli TS (thymidylate synthase) (P0A884 whole entry): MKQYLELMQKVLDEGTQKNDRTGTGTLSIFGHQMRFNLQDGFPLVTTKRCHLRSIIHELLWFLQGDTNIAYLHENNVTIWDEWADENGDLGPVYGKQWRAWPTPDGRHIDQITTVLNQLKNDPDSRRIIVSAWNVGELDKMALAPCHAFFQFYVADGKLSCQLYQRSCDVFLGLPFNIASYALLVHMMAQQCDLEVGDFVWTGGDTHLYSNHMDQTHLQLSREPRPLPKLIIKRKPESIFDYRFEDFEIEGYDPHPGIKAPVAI

In the case of `C#CCN(Cc1ccc2nc(N)[nH]c(=O)c2c1)c1ccc(C(=O)N[C@@H](CCC(=O)O)C(=O)O)cc1` [10-propargyl-5,8-dideazafolic acid], the activity against cancer result in data set [1] is “activity against ovarian, liver and breast cancer”. Also, in data set [2], the toxicities result is “troublesome hepatic and renal toxicities”.

Turning to `Cc1cc(Sc2c(C)ccc3nc(C)[nH]c(=O)c23)ccn1` [Compound 12A, 3,4-Dihydro-2,6-dimethyl-4-oxo-5-[4-(2-picolinylthio)]-quinazoline], the Ki in data set [3] stood at 0.55 ± 0.05 µM; in data set [4] (setting [6]) it was 0.07 ± 0.001 µM. In addition, the IC50 was determined as 4.2 µM in data set [5]; 4.2 µM in the data set with CCRF-CEM cells (Homo sapiens, CCRF-CEM, 120 h); 5 µM in the data set with GC3/M TK- cells (Homo sapiens, GC3/MTK-, 120 h).

For `Cc1nc2cccc(Sc3ccccn3)c2c(=O)[nH]1` [Compound 20A], the values for the Ki in data set [3] and in data set [4] (setting [6]) were 311 ± 99 µM and 61 ± 17 µM, respectively. In addition, the IC50 in data set [5] is over 50 µM; in the data set with CCRF-CEM cells (Homo sapiens, CCRF-CEM, 120 h), over 50 µM; with GC3/M TK- cells (Homo sapiens, GC3/MTK-, 120 h) it was over 50 µM. In addition, the inhibition at 50 µM in data set [5] (@ > 50 μM, 3 days, read-out: growth inhibition, L1210) came out at 40%; with CCRF-CEM cells (Homo sapiens, CCRF-CEM, 120 h, @ > 50 μM, 5 days, read-out: growth inhibition, CCRF-CEM), 20%. For the same compound, the “growth inhibition, GC3-M (TK-)” value in the data set with GC3/M TK- cells (@ > 50 μM, 5 days) is “none”.

`Cc1nc2cccc(Sc3cc[n+](Cc4ccccc4)cc3)c2c(=O)[nH]1` [Compound 22A]: the figures for the Ki in data set [3] and in data set [4] (setting [7]) were 9.3 ± 1.6 µM and 1.1 ± 0.3 µM, respectively. For the same compound, the half-inhibitory concentration (IC50) in data set [5] was over 2.5 µM; in the data set on CCRF-CEM cells (Homo sapiens, CCRF-CEM, 120 h), over 2.5 µM; with GC3/M TK- cells (Homo sapiens, GC3/MTK-, 120 h) it was over 2.5 µM. The compound also displayed an inhibition at 2.5 µM in data set [5] (@ > 2.5 μM, 3 days) of 4%. The “growth inhibition, CCRF-CEM” value in the data set with CCRF-CEM cells (@ > 2.5 μM, 5 days) is given as “none”. Besides, the “growth inhibition, GC3-M (TK-)” value in the data set on GC3/M TK- cells (@ > 2.5 μM, 5 days) is recorded as “none”.

On to `Cc1nc2cccc(Cn3cncc3-c3ccccc3)c2c(=O)[nH]1` [Compound 31A], for which the Ki in data set [3] is 21 ± 6 µM; in data set [4] (setting [7]), 51 ± 2.2 µM. The IC50 is 48 µM in data set [5]; over 50 µM with CCRF-CEM cells (Homo sapiens, CCRF-CEM, 120 h); over 50 µM in the data set with GC3/M TK- cells (Homo sapiens, GC3/MTK-, 120 h).

Take `Cc1nc2cccc(Cn3cncc3-c3ccc([N+](=O)[O-])cc3)c2c(=O)[nH]1` [Compound 32A]: the Ki in data set [3] and in data set [4] (setting [7]) was over 10 µM each time. In addition, the IC50 in data set [5] is over 10 µM; with CCRF-CEM cells (Homo sapiens, CCRF-CEM, 120 h), 6 µM; with GC3/M TK- cells (Homo sapiens, GC3/MTK-, 120 h) it was over 10 µM. Further, the inhibition at 10 µM with GC3/M TK- cells (Homo sapiens, GC3/MTK-, 120 h, @ > 10 μM, 5 days) is 30%.

Take `COc1ccc(-c2cncn2Cc2cccc3nc(C)[nH]c(=O)c23)cc1` [Compound 33A]: the values for the Ki in data set [3] and in data set [4] (setting [7]) were 36 ± 1.5 µM and 47 ± 17 µM, respectively. Moreover, the IC50 in data set [5] was 25 µM; with CCRF-CEM cells (Homo sapiens, CCRF-CEM, 120 h), 18 µM; in the data set on GC3/M TK- cells (Homo sapiens, GC3/MTK-, 120 h) it was over 25 µM. Moreover, the inhibition at 25 µM with GC3/M TK- cells (Homo sapiens, GC3/MTK-, 120 h, @ > 25 μM, 5 days) was 20%.

The record behind these values is patent publication US5430148A, “Antiproliferative quinazolines” (Agouron Pharmaceuticals, Inc., priority 1992, dated 1995).
